The values below come from the NIST ThermoML archive (doi:10.1021/je600580r).

± gives the expanded uncertainty stated by the source.

The nature of data set [1]: Molar enthalpy of transition or fusion. The settings on record: Crystal; DSC.
Data set [2] is described as follows: molar enthalpy of vaporization or sublimation. The note with it: Liquid, DSC.
The conditions of data set [3]: Crystal; DTA.

With `CCNc1nc(NC(C)C)nc(SC)n1` [2-methylthio-4-ethylamino-6-isopropylamino-1,3,5-triazine], the “Molar enthalpy of transition or fusion” value in data set [1] stood at 6.21 ± 0.956 kcal/mol. In data set [2] (466 K), the molar enthalpy turned out to be 21.7 ± 1.91 kcal/mol. In addition, in data set [3], the Normal melting temperature worked out at 83.6 ± 0.5 °C.
Take `CCNc1nc(NCC)nc(SC)n1` [2-methylthio-4,6-bis(ethylamino)-1,3,5-triazine]: the “Molar enthalpy of transition or fusion” value in data set [1] amounted to 5.74 ± 0.478 kcal/mol. In addition, the molar enthalpy in data set [2] (461 K) amounted to 21 ± 1.91 kcal/mol. Moreover, the Normal melting temperature in data set [3] was 77.4 ± 0.5 °C.
As to `CCNc1nc(NC(C)(C)C)nc(SC)n1`, the “Molar enthalpy of transition or fusion” value in data set [1] worked out at 5.02 ± 0.956 kcal/mol. In addition, the molar enthalpy in data set [2] (467 K) turned out to be 20.8 ± 2.39 kcal/mol. In data set [3], the Normal melting temperature turned out to be 99.2 ± 0.5 °C.
